What was measured:
[1] = Cytotoxicity against mouse Hepa-1c1c7 cells; type: cell-based
[2] = Chemoprevention index, ratio of IC50 for mouse Hepa-1c1c7 cells to drug level required to double specific NADPH:quinone reductase activity in mouse Hepa-1c1c7 cells; type: functional

SMILES | IC50 [1] [µM] | Ratio IC50 [2]
CCC/C=C/C(O)C#CC#C[C@@H](O)[C@H](C)O (some centres undefined) | 422 | 14.77
C=CCCCCC/C=C\C(O)C#CC#C[C@H](O)[C@H](C)O (some centres undefined) | 252 | 18.39
CCCCCCCCCC(O)CCCC[C@@H](O)[C@H](C)O (some centres undefined) | > 500 | –
CCCCCC(O)C#CC#C[C@@H](O)[C@H](C)O (relative stereo) | > 500 | >31.66
CCCCCCC(O)C#CC#C[C@@H](O)[C@H](C)O (relative stereo) | 223 | 25.66
CC(C)=CC(O)C#CC#C[C@@H](O)[C@H](C)O (relative stereo) | 406 | 17.02
C[C@H](O)[C@H](O)C#CC#CC(O)C1CCCCC1 (relative stereo) | > 500 | >3.8
C[C@H](O)[C@H](O)C#CC#CC(O)c1ccccc1 (relative stereo) | > 500 | >13.57
C[C@H](O)[C@H](O)C#CC#CC(O)Cc1ccccc1 (relative stereo) | > 500 | >8.64
CCCCCCCCCC(O)C#CC#C[C@H](O)[C@H](C)O (relative stereo) | 64.2 | 30.13
CCCCCC(O)C#CC#C[C@H](O)[C@H](C)O (relative stereo) | > 500 | >38.6
C=CCCCCC/C=C\C(O)C#CC#C[C@@H](O)[C@H](C)O (relative stereo) | 88.6 | 10.51
CCCCCCCCCC(O)C#CC#C[C@@H](O)[C@H](C)O (relative stereo) | 39.8 | 7.44
C=CC(O)C#CC#C[C@@H](O)[C@H](C)O (relative stereo) | 177 | 1.12
C=CCCCCC/C=C\[C@H](O)C#CC#CC1OC1C (some centres undefined) [GYMNASTERKOREAYNE B] | 70.6 | 9.57

Source: ChEMBL document CHEMBL1629429, “SAR studies of gymnasterkoreayne derivatives with cancer chemopreventive activities” (Bioorg Med Chem Lett, 2010)
